The text below walks through data of patent US20140212981A1, “METHODS AND SYSTEMS FOR DETERMINING THE AMOUNT OF THIOPURINE METABOLITES IN A SAMPLE” (Laboratory Corporation of America Holdings, priority 2012, published 2014).

Some results are limits rather than exact numbers.

For data set [1] the following is noted: cited from earlier work; for Therapeutic Range: metabolite level in red blood cells of subjects on thiopurine treatment, exemplary therapeutic levels.
Data set [2] is described as follows: Acid-promoted conversion (hydrolysis) as a function of time. The data set is classed as physicochemical. As to conditions: FIG. 2C. The text has this:
The method comprises converting the one or more 6-thioguanine nucleotide compounds to 6-thioguanine or a 6-thioguanine hydrolysis product. The converting can be carried out in any manner known to those of skill in the art. In some embodiments, the converting comprises contacting the one or more 6-thioguanine nucleotide compounds with a sulfur-containing reducing agent to yield one or more reduced 6-thioguanine nucleotide compounds. Any suitable sulfur-containing reducing agent can be used. In some embodiments, the sulfur-containing reducing agent is dithioerythritol. In some such embodiments, the method comprises contacting the one or more reduced 6-thioguanine nucleotide compounds with an acidic hydrolyzing agent. Any suitable acidic hydrolyzing agent can be used. In some embodiments, the acidic hydrolyzing agent is perchloric acid, nitric acid, sulfuric acid, or a combination thereof. In some such embodiments, the acidic hydrolyzing agent is perchloric acid.
In some embodiments the hydrolysis of 6-methylmercaptopurine nucleotide compounds proceeds according to Scheme 2 below. […] The 6-methylmercaptopurine is readily hydrolyzed in the presence of acid to form a 6-methylmercaptopurine hydrolysis product comprising 4-amino-5-(methylthio) carbonyl imidazole. […]

For the compound “6-methylmercaptopurine nucleotides [6-MMPNs]”, the “Therapeutic Range” value in data set [1] is less than 5700 pmol/8 × 10^8RBC. In addition, the “Alert Values” in data set [1] (metabolite level in red blood cells, levels in this range require modulation of therapy) is listed as greater than 5700 pmol/8 × 10^8RBC.
Turning to 6-thioguanine nucleotides [6-TGNs], in data set [1], the “Therapeutic Range” value is listed as 235 - 450 pmol/8 × 10^8RBC.
For the compound `CSc1ncnc2nc[nH]c12` [6-MMP, 6-methylmercaptopurine], in data set [2] (6-MMP to 6-MMP*, perchloric acid hydrolysis), the “Time for acid-promoted conversion to hydrolysis product” value was “less than 140 minutes”.
With `[2H]C([2H])([2H])Sc1ncnc2[nH]cnc12` [D3-6-MMP], the “Rate of acid-promoted conversion relative to unlabeled 6-MMP” value in data set [2] (D3-6-MMP to D3-6-MMP*) is “same rate as unlabeled 6-MMP”.
